These results are taken from patent EP2019099A1, “Dpp-IV inhibitors” (Santhera Pharmaceuticals (Schweiz) AG, priority 2007, dated 2009).

For the assay, the target named is T1, DPP-IV (Homo sapiens, UniProt P27487).
T1 construct: Soluble human DPP-IV lacking the transmembrane anchor (Gly31-Pro766); Pre-Pro-alpha-mating factor leader (secretion fusion) (N, cleaved yes); made in house
Kind of assay: Inhibition of DPP-IV peptidase activity, continuous fluorimetric assay (Gly-Pro-AMC cleavage). Type of assay: biochemical, human and porcine. The settings on record: 50 pM DPP-IV, 16 µM substrate Gly-Pro-AMC, pH 7.4, 25 °C, values grouped in 2 classes. Here is the method:
Inhibition of DPP-IV peptidase activity was monitored with a continuous fluorimetric assay. This assay is based on the cleavage of the substrate Gly-Pro-AMC (Bachem) by DPP-IV, releasing free AMC. The assay is carried out in 96-well microtiterplates. In a total volume of 100 µL, compounds are preincubated with 50 pM DPP-IV employing a buffer containing 10mM Hepes, 150mM NaCl, 0.005% Tween 20 (pH 7.4). The reaction is started by the addition of 16 µM substrate and the fluorescence of liberated AMC is detected for 10 minutes at 25 °C with a fluorescence reader (BMG-Fluostar; BMG-Technologies) using an excitation wavelength of 370 nm and an emission wavelength of 450 nm. The final concentration of DMSO is 1 %. The inhibitory potential of the compounds were determined.
Soluble human DPP-IV lacking the transmembrane anchor (Gly31-Pro766) was expressed in a recombinant YEAST-strain as Pre-Pro-alpha-mating fusion. The secreted product (rhuDPP-IV-Gly31-Pro766) was purified from fermentation broth (>90% purity).
In table 1 are listed the IC50 values for inhibition of DPP-IV peptidase activity determined in assays as described above. The IC50 values were grouped in 2 classes: a ≤ 100 nM; b ≥101 nM and ≤ 1000 nM.

Each structure is given as a SMILES string.

By IC50 is commonly meant the concentration that inhibits the measured activity by half.

T1 sequence (P27487 31-766): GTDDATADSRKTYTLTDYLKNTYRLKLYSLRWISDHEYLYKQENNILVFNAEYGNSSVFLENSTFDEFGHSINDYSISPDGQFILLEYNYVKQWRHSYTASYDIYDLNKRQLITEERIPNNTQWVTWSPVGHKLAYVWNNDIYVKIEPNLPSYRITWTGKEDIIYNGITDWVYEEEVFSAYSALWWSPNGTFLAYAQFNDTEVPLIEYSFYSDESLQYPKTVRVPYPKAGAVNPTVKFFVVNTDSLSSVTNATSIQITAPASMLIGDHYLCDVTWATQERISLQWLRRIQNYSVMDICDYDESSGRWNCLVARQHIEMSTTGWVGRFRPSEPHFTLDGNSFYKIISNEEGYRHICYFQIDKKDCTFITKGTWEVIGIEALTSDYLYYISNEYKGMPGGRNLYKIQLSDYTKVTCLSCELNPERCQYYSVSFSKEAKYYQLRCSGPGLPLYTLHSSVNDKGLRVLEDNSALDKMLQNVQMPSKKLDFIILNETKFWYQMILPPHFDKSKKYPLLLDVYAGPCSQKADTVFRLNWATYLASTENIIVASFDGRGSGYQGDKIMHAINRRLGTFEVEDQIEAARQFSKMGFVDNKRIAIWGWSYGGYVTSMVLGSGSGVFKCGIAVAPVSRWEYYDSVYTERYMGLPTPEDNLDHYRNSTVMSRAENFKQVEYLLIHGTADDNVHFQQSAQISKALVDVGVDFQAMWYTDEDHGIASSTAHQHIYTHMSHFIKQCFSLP

`Cc1ncc(C(=O)N2CCC([C@H](N)Cc3cc(F)c(F)cc3F)CC2)c(C)n1` [Example 1, {4-[(R)-1-Amino-2-(2,4,5-trifluoro-phenyl)-ethyl]-piperidin-1-yl}-(2,4-dimethyl-pyrimidin-5-yl)-methanone] came in with an IC50 of no more than 0.1 µM. The compound `Cc1nc(C(F)(F)F)ncc1C(=O)N1CCC([C@H](N)Cc2cc(F)c(F)cc2F)CC1` [Example 2, {4-[(R)-1-Amino-2-(2,4,5-trifluoro-phenyl)-ethyl]-piperidin-1-yl}-(4-methyl-2-trifluoromethylpyrimidin-5-yl)-methanone] returned a concentration for half-maximal inhibition (IC50) of no more than 0.1 µM.

Turning to `N[C@H](Cc1cc(F)c(F)cc1F)C1CCN(C(=O)c2cnc(C(F)(F)F)nc2C2CC2)CC1` [Example 4], the IC50 is no more than 0.1 µM. `CC(C)c1ncc(C(=O)N2CCC([C@H](N)Cc3cc(F)c(F)cc3F)CC2)c(C2CC2)n1` [Example 5]: the IC50 was no more than 0.1 µM. To `Cc1ncc(C(=O)N2CCC([C@H](N)Cc3cc(F)c(F)cc3F)CC2)c(C(F)(F)F)n1` [Example 6] belongs no more than 0.1 µM; to `Cc1nc(N)ncc1C(=O)N1CCC([C@H](N)Cc2cc(F)c(F)cc2F)CC1` [Example 7], no more than 0.1 µM. To `N[C@H](Cc1cc(F)c(F)cc1F)C1CCN(C(=O)c2cnc(-c3ccccn3)nc2C(F)(F)F)CC1` [Example 8] belongs no more than 0.1 µM.

`Cc1nc(-c2ccccc2)ncc1C(=O)N1CCC([C@H](N)Cc2cc(F)c(F)cc2F)CC1` [Example 9] registered a 50% inhibitory concentration (IC50) of no more than 0.1 µM.
